{"source": "patent US20180258180A1", "about": "“COMBINATION THERAPY INVOLVING ANTIBODIES AGAINST CLAUDIN 18.2 FOR TREATMENT OF CANCER” (Ganymed Pharmaceuticals AG, priority 2012, published 2018)", "key": {"CLDN18.2": {"biological_target": "CLDN18.2 (Homo sapiens, UniProt P56856)", "assay": "IMAB362 binding to first extracellular domain of CLDN18.2"}, "[1]": {"system": "CLDN18.2-positive cancer cell lines", "assay": "IMAB362 treatment of mice bearing CLDN18.2-positive cancer cell lines", "type": "in vivo"}, "[2]": {"assay": "Repeated dose toxicity study in mice", "type": "in vivo", "settings": "weekly administration for 3 months, highest dose levels 400 mg/kg", "excerpt": "(§1) This compartimentalization is lost upon malignant transformation rendering the epitope drugable by IMAB362."}, "[3]": {"assay": "Repeated dose toxicity study in cynomolgus monkeys", "type": "in vivo", "settings": "up to 5 weekly applications of up to 100 mg/kg", "excerpt": "as §1"}, "[4]": {"assay": "Toxicity and PK/TK profile studies (any toxicity study)", "type": "in vivo, mice and cynomolgus monkeys", "excerpt": "as §1"}, "[5]": {"assay": "Phase I clinical study, single intravenous administration", "type": "in vivo, human", "excerpt": "IMAB362 is in early clinical testing. A phase I clinical study has been conducted in human. […] In an ongoing phase IIa clinical study IMAB362 is given repetitively."}, "[6]": {"system": "NUGC-4 cells expressing CLDN18.2", "assay": "IMAB362 ADCC with ZA/IL-2 cultivated PBMCs on NUGC-4 cells (luciferase)", "type": "cell-based, human", "settings": "PBMCs cultivated 14 days with ZA/IL-2, NUGC-4 targets", "experimental": "Specific killing was determined in luciferase assays; cf. FIG. 14a. […] NUGC-4 served as target cells."}, "[7]": {"system": "CLDN18.2-positive (NUGC-4, KATO III) human target cell lines", "assay": "IMAB362 ADCC with ZA/IL-2 expanded effector cells on CLDN18.2-positive target cell lines", "type": "cell-based", "experimental": "These effector cell cultures were used in ADCC assays with CLDN18.2-positive (NUGC-4, KATO III) and negative (SK-BR-3) human target cell lines (E:T ratio 40:1). […] ADCC was measured in luciferase assays; cf. FIG. 15a. […] FIG. 15b. Same experiment as described in (a) was performed using NUGC-4 as target cells; cf. FIG. 15c. […] A purity of more than 97.0% Vγ9Vδ2 T cells in lymphocytes was obtained."}, "[8]": {"system": "HEK293~CLDN18.2 transfectants", "assay": "Early treatment of HEK293~CLDN18.2 tumor xenografts", "type": "in vivo, nude mice", "settings": "200 μg twice per week for 6 weeks", "excerpt": "(§2) Moreover, advanced tumor treatment experiments were initiated up to 9 days after tumor cell inoculation when tumors had reached volumes of about 60-120 mm^3.\nNude mice were subcutaneously inoculated with 1×10^7 HEK293˜CLDN18.2 transfectants. Treatment of 10 mice per group started 3 days after tumor inoculation. […] Not only time to death was prolonged, but 4 of 10 mice survived the entire observation period of 210 days."}, "[9]": {"system": "HEK293~CLDN18.2 tumor xenografts", "assay": "Treatment of advanced HEK293~CLDN18.2 tumor xenografts", "type": "in vivo, nude mice", "excerpt": "as §2\n(§3) Treatment of 9 to 10 mice per group was initiated when mean tumor volumes reached 88 mm^3 (62-126 mm^3). […] All mice in the groups treated with either PBS or isotype control died within 50-100 days. […] Three of these mice survived the entire observation period (FIG. 20). Importantly, antitumoral efficacy in vivo depends on the presence of the target on the tumor cells."}, "[10]": {"system": "CLDN18.2-negative HEK293 tumor cells", "assay": "IMAB362 treatment of CLDN18.2-negative HEK293 tumors", "design": "species or system mice", "settings": "mouse, in vivo", "excerpt": "as §3"}, "[11]": {"system": "NUGC-4 gastric cancer cells", "assay": "NUGC-4 gastric tumor xenograft model", "type": "in vivo, athymic nude mice", "excerpt": "NUGC-4 cells grow aggressively in nude mice.\nTumor sizes were monitored twice weekly.\nWhen 1×10^7 tumor cells are inoculated in mice, the median survival time of untreated mice is not longer than 25 days. […] Mice were stratified size-dependently into treatment groups (FIG. 21)."}, "[12]": {"system": "NUGC-4~CLDN18.2 xenografts", "assay": "NUGC-4~CLDN18.2 xenografts, IMAB362 immunotherapy", "design": "species or system mice", "settings": "mouse, in vivo"}, "[13]": {"system": "NCI-N87~CLDN18.2 xenograft tumors", "assay": "Combination of IMAB362 and EOF regimen on NCI-N87~CLDN18.2 xenografts", "type": "in vivo, nude mice", "experimental": "NCI-N87˜CLDN18.2 xenograft tumors were inoculated by injection of 1×10^7 NCI-N87˜CLDN18.2 cells subcutaneous into the flank of 9 mice for each treatment group. […] IMAB362 treatment was continued weekly. Tumor size and animal health was monitored semi-weekly. […] The size of s.c. tumors was measured twice weekly (mean+SEM; *p<0.05). […] Mice were sacrificed, when tumor reached a volume of 1400 mm^3."}, "[14]": {"system": "NUGC-4~CLDN18.2 xenograft tumors", "assay": "Combination of IMAB362 and EOF regimen on NUGC-4~CLDN18.2 xenografts", "design": "species or system nude mice", "settings": "mouse, in vivo", "experimental": "Xenograft tumors were inoculated by injection of 1×10^7 NUGC-4˜CLDN18.2 cells subcutaneous into the flank of 10 nude mice (female, six weeks old) per treatment group. Mice were treated on day 3, 10, 17 and 24 with chemotherapeutic agents. IMAB362 treatment was continued weekly."}, "[15]": {"system": "CLDN18.2-transfected HEK293 cells", "assay": "IMAB362 with ZA/IL-2 induced Vγ9Vδ2 T cells on HEK293~CLDN18.2 tumors in NSG mice", "type": "in vivo", "settings": "200 μg semi-weekly, in the presence of human γδ T cells and ZA (and IL-2)", "experimental": "NSG mice lack mature T cells, B cells, natural killer (NK) cells, multiple cytokine signaling pathways, and they have many defects in innate immunity, whereas the niches in the primary and secondary immunological tissues are permissive to colonization by human immune cells.\nNSG mice were inoculated subcutaneously with 1×10^7˜CLDN18.2-transfected HEK293 cells. On the same day, mice received 8×10^6 human PBMCs enriched for Vγ9Vδ2 T cells, which were cultured for 14 days in ZA-supplemented medium. […] To maintain human T cells functional, IL-2 was administered semi-weekly and ZA weekly. […] In addition to 9 mice treated as described, two control groups of mice were established."}, "NUGC-4 xenografts": {"system": "NUGC-4 xenografts", "assay": "Biodistribution of Dyelight 680-labeled antibodies in NUGC-4 xenografted nude mice", "settings": "live imaging"}}, "data": [{"substance": "IMAB362: chimeric IgG1 antibody directed against CLDN18.2, developed by Ganymed Pharmaceuticals AG", "values": [{"measurement": "recognition of the first extracellular domain (ECD1) of CLDN18.2", "setting": "CLDN18.2", "result": "high affinity and specificity"}, {"measurement": "mice showing regression of their tumor", "setting": "[1]", "result": "up to 40%"}, {"measurement": "survival", "setting": "[1]", "result": "survival benefit"}, {"measurement": "tolerability of repeated doses i.v.", "setting": "[2]", "result": "well tolerated"}, {"measurement": "tolerability of repeated doses i.v.", "setting": "[3]", "result": "well tolerated"}, {"measurement": "gastric toxicity", "setting": "[4]; any toxicity study", "result": "no gastric toxicity"}, {"measurement": "adverse effects on male or female reproductive organs", "setting": "[4]; in vivo", "result": "No adverse effects"}, {"measurement": "binding to tissues lacking the target", "setting": "[4]; in vivo", "result": "does not bind"}, {"measurement": "immune activation and cytokine release", "setting": "[4]; in vivo", "result": "does not induce"}, {"measurement": "systemic or local toxicity", "setting": "[4]; repeated doses i.v., mice and cynomolgus monkeys", "result": "No signs of systemic or local toxicity"}, {"measurement": "measured tumor markers", "setting": "[5]; in one patient, within 4 weeks after treatment", "result": "decreased significantly"}, {"measurement": "tolerability in patients", "setting": "[5]; single i.v. administration, 33-1000 mg/m^2, observed for 28 days", "result": "very well tolerated"}, {"measurement": "IMAB362-dependent ADCC activity", "setting": "[6]", "result": "Strong"}, {"measurement": "ADCC activity with Vγ9Vδ2 T cells isolated with >97% purity", "setting": "[7]; NUGC-4 targets, day 14", "result": "retained and partly improved"}, {"measurement": "ADCC activity against CLDN18.2-positive human tumor cell lines", "setting": "[7]; ZA/IL-2 cultured effector cells, E:T 40:1", "result": "Strong ADCC activity"}, {"measurement": "mice surviving the entire observation period of 210 days", "setting": "[8]", "result": "4 of 10"}, {"measurement": "survival", "setting": "[8]; start 3 days after inoculation", "result": "survival benefit"}, {"measurement": "median survival time", "setting": "[9]; 200 μg twice per week for 6 weeks, start at mean tumor volume 88 mm^3, versus 25 days", "result": 47, "unit": "days"}, {"measurement": "mice surviving the entire observation period", "setting": "[9]; 9 to 10 mice per group", "result": "Three"}, {"measurement": "survival", "setting": "[9]; advanced tumors", "result": "survival benefit"}, {"measurement": "antitumoral effects", "setting": "[10]", "result": "No antitumoral effects"}, {"measurement": "tumor growth compared to controls", "setting": "[11]; 200 μg twice weekly, starting 6 days after inoculation, p<0.05", "result": "significant inhibited"}, {"measurement": "median survival time", "setting": "[11]; non-significantly increased, versus 25 days", "result": 31, "unit": "days"}, {"measurement": "tumor volumes at day 21 after tumor inoculation compared to control mice", "setting": "[11]; p<0.05", "result": "significant smaller"}, {"measurement": "tumor growth rate", "setting": "[11]; treatment initiated at mean tumor size about 109 mm^3", "result": "significantly reduce tumor growth rate"}, {"measurement": "survival", "setting": "[12]", "result": "significantly (p<0.05) longer survival"}, {"measurement": "tumor sizes at day 14 of treatment", "setting": "[12]", "result": "significant (p<0.05) smaller tumor sizes"}, {"measurement": "tumor growth compared to control mice", "setting": "[13]; IMAB362 800 μg weekly, EOF i.p. day 4, 11, 18, 25", "result": "highly significant suppressed tumor growth"}, {"measurement": "median survival", "setting": "[13]; saline control 59 days", "result": 76, "unit": "days"}, {"measurement": "tumor growth compared to saline treated control group", "setting": "[14]", "result": "inhibited significantly the tumor growth"}, {"measurement": "outgrowth of CLDN18.2-positive tumors", "setting": "[15]", "result": "significantly inhibited and nearly abrogated"}, {"measurement": "retention of labeled antibody signal 120 hours after injection", "setting": "NUGC-4 xenografts", "result": "detectable in comparable intensity"}]}]}
